The values that follow come from US8383624B2 (Abbott Laboratories, priority 2009, dated 2013).

The first assay deals with T1, Cdc7 (BEV coexpressed huCDC7/DBF4) (Homo sapiens, UniProt O00311).
T1 construct: made in house; host or cells: baculovirus expression vector (BEV) system
T1 sequence (O00311 whole entry): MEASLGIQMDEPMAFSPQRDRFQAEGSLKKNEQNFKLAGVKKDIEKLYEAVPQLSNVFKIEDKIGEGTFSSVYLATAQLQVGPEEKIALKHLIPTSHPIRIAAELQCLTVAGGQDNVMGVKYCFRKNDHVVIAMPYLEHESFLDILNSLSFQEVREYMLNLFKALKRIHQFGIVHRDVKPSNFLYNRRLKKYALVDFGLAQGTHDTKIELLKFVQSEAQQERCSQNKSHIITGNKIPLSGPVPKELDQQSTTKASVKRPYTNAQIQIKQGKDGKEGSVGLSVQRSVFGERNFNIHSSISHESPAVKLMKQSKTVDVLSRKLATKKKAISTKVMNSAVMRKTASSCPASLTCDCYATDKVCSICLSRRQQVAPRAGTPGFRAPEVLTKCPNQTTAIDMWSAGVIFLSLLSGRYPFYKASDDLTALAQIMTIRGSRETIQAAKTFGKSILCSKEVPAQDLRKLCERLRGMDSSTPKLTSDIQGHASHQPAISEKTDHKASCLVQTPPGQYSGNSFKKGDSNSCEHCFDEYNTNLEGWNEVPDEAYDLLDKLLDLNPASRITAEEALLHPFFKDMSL
T1 sequence (Q9UBU7 whole entry partner): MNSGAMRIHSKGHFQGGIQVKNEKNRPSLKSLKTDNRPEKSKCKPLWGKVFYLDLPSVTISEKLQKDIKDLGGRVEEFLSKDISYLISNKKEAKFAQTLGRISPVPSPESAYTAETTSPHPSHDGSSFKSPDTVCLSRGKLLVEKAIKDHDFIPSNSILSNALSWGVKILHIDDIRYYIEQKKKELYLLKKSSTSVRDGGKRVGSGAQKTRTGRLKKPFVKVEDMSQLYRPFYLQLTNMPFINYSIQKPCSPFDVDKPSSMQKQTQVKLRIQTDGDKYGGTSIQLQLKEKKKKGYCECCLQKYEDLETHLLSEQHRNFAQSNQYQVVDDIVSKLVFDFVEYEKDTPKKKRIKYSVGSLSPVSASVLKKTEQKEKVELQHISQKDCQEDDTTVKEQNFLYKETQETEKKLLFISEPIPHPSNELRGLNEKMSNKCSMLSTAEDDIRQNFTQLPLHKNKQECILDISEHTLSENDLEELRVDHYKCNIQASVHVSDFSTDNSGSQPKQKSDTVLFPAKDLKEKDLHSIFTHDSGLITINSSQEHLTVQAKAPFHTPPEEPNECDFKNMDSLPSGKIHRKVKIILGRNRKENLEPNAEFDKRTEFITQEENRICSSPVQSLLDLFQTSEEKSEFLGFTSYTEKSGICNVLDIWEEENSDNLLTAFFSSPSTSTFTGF
Briefly: Cdc7 enzyme inhibition assay ([33P]-ATP, biotinylated peptide substrate, FlashPlate). The format is biochemical. The settings on record: Table 1; Ki from IC50 assuming ATP-competitive inhibition, apparent ATP Km 0.7 μM, 1 μM ATP. The method, then: Cdc7 (BEV coexpressed huCDC7/DBF4) is prepared internally. Cdc7 assays are conducted as follows with final concentrations as listed. In 384-well v-bottom polypropylene plates, 6 L compound (2% DMSO), is mixed with 6 µL of Cdc7 (2 μg/mL), and Jerini peptide substrate A-All (biotin-C6linker-TPSDSLIYDDGLS) (2 μM), followed by immediate initiation with 6 L […] (1 μM, 20 mCi/μmol) using a reaction buffer comprising 25 mM HEPES, pH 7.5, 1 mM DTT, 10 mM MgCl2, 100 μM Na3VO4, 0.075 mg/ml Triton X-100. Reactions are quenched after 1 hr by the addition of 90 L stop buffer (50 mM EDTA, 2M NaCl). 85 μL of the stopped reactions are transferred to 384-well streptavidin-coated plates (FlashPlate Plus, Perkin Elmer), incubated 30 minutes at room temperature and washed 3 times with 0.05% Tween-20/PBS using an ELX-405 automated plate washer (BioTek), and counted on a TopCount Scintillation Plate Reader (Packard). IC50 values are determined via non-linear regression fitting of enzyme inhibition data and corresponding Ki values are generated assuming ATP-competitive (equilibrium) inhibition and using the experimentally determined apparent ATP Km of 0.7 μM (as determined using the above assay condition, but varying ATP). Table 1 depicts enzyme inhibition data (Ki) for exemplary compounds. In Table 1, “A” represents a Ki of less than 10 nM, “B” represents a Ki of between 10 nM and 100 nM, and “C” represents a Ki of greater than 100 nM.
Table 2 depicts enzyme inhibition data (Ki) for examples 27-43 using the same assay as example 26. In Table 2, “A” represents a Ki of less than 10 nM, “B” represents a Ki of between 10 nM and 100 nM, and “C” represents a Ki of greater than 100 nM.
As to `O[C@H]1CC[C@H](Nc2cc(-c3c[nH]c4nccnc34)cc(Cl)n2)CC1` [Example 2, Trans 4-(6-chloro-4-(5H-pyrrolo[3,2-b]pyrazin-7-yl)pyridin-2-ylamino)cyclohexanol], the Ki was below 10 nM.

On to `O=S(=O)(NC1CCCC(Nc2cc(-c3c[nH]c4nccnc34)cc(Cl)n2)C1)c1ccco1` (stereo not drawn) [Example 25, N-(3-(6-chloro-4-(5H-pyrrolo[2,3-b]pyrazin-7-yl)pyridin-2-ylamino)cyclohexyl)furan-2-sulfonamide], for which the Ki was below 10 nM. The same measure, in the same setting: the result for `O=C(NC1CCCC(Nc2cc(-c3c[nH]c4nccnc34)cc(Cl)n2)C1)C1CC1` (stereo not drawn) [Example 11, N-(3-(6-chloro-4-(5H-pyrrolo[2,3-b]pyrazin-7-yl)pyridin-2-ylamino)cyclohexyl)cyclopropanecarboxamide] reads below 10 nM.

For `O=C(Nc1cc(-c2c[nH]c3nccnc23)cc(Cl)n1)c1cccnc1` [Example 15, N-(6-chloro-4-(5H-pyrrolo[2,3-b]pyrazin-7-yl)pyridin-2-yl)nicotinamide], the Ki is below 10 nM. Still for that read-out and setting: as for `Clc1cc(-c2c[nH]c3nccnc23)cc(NC2CCCNC2)n1` (stereo not drawn) [Example 3, 6-chloro-N-(piperidin-3-yl)-4-(5H-pyrrolo[2,3-b]pyrazin-7-yl)pyridin-2-amine], the figure is below 10 nM.

For `CCN1CCCC(Nc2cc(-c3c[nH]c4nccnc34)cc(Cl)n2)C1` (stereo not drawn) [Example 4, 6-chloro-N-(1-ethylpiperidin-3-yl)-4-(5H-pyrrolo[2,3-b]pyrazin-7-yl)pyridin-2-amine], the Ki is below 10 nM. With `CS(=O)(=O)N1CCCC(CNc2cc(-c3c[nH]c4nccnc34)cc(Cl)n2)C1` (stereo not drawn) [Example 10, 6-chloro-N-((1-(methylsulfonyl)piperidin-3-yl)methyl)-4-(5H-pyrrolo[2,3-b]pyrazin-7-yl)pyridin-2-amine], the Ki was below 10 nM.

As for `Clc1cc(-c2c[nH]c3nccnc23)cc(NC2CCCCC2)n1` [Example 1, 6-chloro-N-cyclohexyl-4-(5H-pyrrolo[3,2-b]pyrazin-7-yl)pyridin-2-amine], the Ki was below 10 nM. On to `O=C(Nc1cc(-c2c[nH]c3nccnc23)cc(Cl)n1)c1ccccc1` [Example 17, N-(6-chloro-4-(5H-pyrrolo[2,3-b]pyrazin-7-yl)pyridin-2-yl)benzamide], for which the Ki lay within 10 to 100 nM. On to `Clc1cc(-c2c[nH]c3nccnc23)nc(NC2CCCCC2)n1` [Example 21, 4-chloro-N-cyclohexyl-6-(5H-pyrrolo[3,2-b]pyrazin-7-yl)pyrimidin-2-amine], for which the Ki is above 100 nM.

Still in this assay, the particulars now being: Table 2; same assay as example 26.
`O[C@H]1CC[C@H](Nc2cc(-c3c[nH]c4ncc(Cl)nc34)cc(Cl)n2)CC1` [Example 33, trans 4-{[6-chloro-4-(2-chloro-5H-pyrrolo[2,3-b]pyrazin-7-yl)pyridin-2-yl]amino}cyclohexanol]: the Ki is below 10 nM. On the same count and under the same terms, as for `CCN1CCC(C(=O)N[C@H]2CC[C@H](Nc3cc(-c4c[nH]c5nccnc45)cc(Cl)n3)CC2)C1` (relative stereo) [Example 29, N-(trans-4-{[6-chloro-4-(5H-pyrrolo[2,3-b]pyrazin-7-yl)pyridin-2-yl]amino}cyclohexyl)-1-ethylpyrrolidine-3-carboxamide], the figure is below 10 nM; as for `C[C@@H](C(=O)N[C@H]1CC[C@H](Nc2cc(-c3c[nH]c4nccnc34)cc(Cl)n2)CC1)N(C)C` (relative stereo) [Example 32, N-(trans-4-{[6-chloro-4-(5H-pyrrolo[2,3-b]pyrazin-7-yl)pyridin-2-yl]amino}cyclohexyl)-N^2,N^2-dimethylalaninamide], below 10 nM; as for `Clc1cc(-c2c[nH]c3ncc(NCCCc4ccccc4)nc23)cc(NC2CCCCC2)n1` [Example 40, 7-[2-chloro-6-(cyclohexylamino)pyridin-4-yl]-N-(3-phenylpropyl)-5H-pyrrolo[2,3-b]pyrazin-2-amine], 10 to 100 nM. In the case of `Clc1cc(-c2c[nH]c3ncc(Cl)nc23)cc(NC2CCCCC2)n1` [Example 35, 6-chloro-4-(2-chloro-5H-pyrrolo[2,3-b]pyrazin-7-yl)-N-cyclohexylpyridin-2-amine], the Ki is below 10 nM.
